Measurements reported in paper PMC8344021, “Discovery of Small Molecule Bak Activator for Lung Cancer Therapy” (Theranostics, 2021).

Assays:
mouse Bak protein = biological target: T1, mouse Bak protein (Mus musculus, UniProt O08734); test: Isothermal titration calorimetry (ITC), mouse protein; format: binding; conditions: mouse wild type Bak
T1 construct: His tag; made in house; host or cells: Escherichia coli BL21 DE3
Procedure: The binding affinity of BKA-073 with Bak protein was examined by isothermal titration calorimetry (ITC) assay as described, [28]. ITC assay was carried out in the auto-iTC200 instrument (MicroCal, GE) at 25 °C. Purified recombinant human or mouse Bak protein was loaded into a 96 Deepwell PP plate. BKA-073 compound was then titrated stepwise into the protein for a total of 16 injections. Reference power and initial delay were set as 5 µCal/sec and 60s, respectively. A string speed of 750 rpm was used for the ITC measurements. The binding constant (Kd) value was determined by fitting the titration curve to a one-site binding mode, using the Origin software provided by the manufacturer.
Figure S3. […] The binding constant (KD) value was determined by fitting of the titration curve to a 1- […]
(1 x 10^5 cells) was transferred to a 5 ml culture tube, followed by the addition of 5 μl of FITC Annexin V and 5 μl propidium iodide (PI). […] Samples were analyzed by flow cytometry (BD FACSCantoTMII, BD Biosciences, San Jose, CA). ∆% cell death was calculated with the formula: (% cell death treated - % cell death non-treated) as described […]
Fluorescence polarization (FP) assay
Fluorescence polarization assay was carried out as described previously. […] The FP values (in millipolarization units) were measured using a fluorescence microplate reader at 485/530 nm (Gemini XPS, Molecular Devices). […]

[1] = test system: LSL-KRAS G12D LKB1 fl/fl (KL) mice lung tumors; test: Mutant KRAS-driven lung cancer GEMM (KL mice); format: in vivo, mouse; conditions: 15 mg/kg/d i.p.
Procedure: LSL-KRAS^G12D LKB1^fl/fl (KL) were generated as previously described [30]-[33]. All studies were performed on protocols approved by the Emory University IACUC. Six weeks after cre-adenovirus infection, KL mice were treated with BKA-073 intraperitoneally (i.p) for 48 days. Mice were euthanized with CO2 asphyxiation. After lung perfusion with PBS, the left lung lobes were harvested from mice in control and BKA-073 treated groups and immediately fixed in 10% neutral buffered formalin (Fisher Scientific, Kalamazoo, MI), horizontally cut into three equal parts and embedded in paraffin blocks. Three parts of lung tissues representing different regions of the lung were vertically put into paraffin blocks for hematoxylin-eosin (H&E) staining. Lung tissue samples were sectioned at 3 µm three times for placement of slides and stained with H&E. H&E stained samples were scanned using Nano Zoomer 2.0-HT (Hamamatsu, Japan) and images were analyzed using ImageScope viewing software (Leica Biosystems, Buffalo Grove, IL). Tumor numbers were counted under a microscope and tumor area was quantified using Openlab modular imaging software (PerkinElmer, Waltham, MA) as previously described, [32].
KRAS is the most commonly mutated oncogene, yet no effective targeted therapies exist for KRAS-mutant cancers. […] Since BKA-073 is able to induce apoptosis by activation of Bak via facilitating its oligomerization in vitro and in vivo (Figures 1, 2 and 4), we were interested in testing whether BKA-073 is effective for the treatment of mutant KRAS-driven cancer. To assess the potency of BKA-073 in KRAS mutant-driven lung cancer, lox-stop-lox (LSL)-KRAS^G12D LKB1^fl/fl (i.e. KL) mice were generated and bred out as previously described, [31], [50], [51]. These mice contain a KRAS^G12D LSL knock-in allele and a floxed allele of LKB1 (LKB1^fl/fl), [31]. Primary lung adenocarcinoma was detectable as early as 6 weeks after intranasal administration of 5×10^6 pfu adenovirus expressing Cre recombinase (AdeCre) in KRAS^G12D LKB1^fl/fl (KL) mice. […] After treatment for 48 days, KL mice were euthanized with CO2 asphyxiation. Lungs with tumor and normal lung tissues were collected for further analysis. To quantify tumor burden and tumor multiplicity in mice, H&E-stained lungs were imaged with morphometric software to quantify the surface area composed of tumor as opposed to normal tissue of representative cross-sections of each lung lobe for each mouse as previously described [31]-[33]. […] There were 4 deaths out of 6 mice in the control group versus 2 death out of 6 mice in the BKA-073 treatment group […], calculated up to 48 days before euthanization.

T1 sequence (O08734 whole entry): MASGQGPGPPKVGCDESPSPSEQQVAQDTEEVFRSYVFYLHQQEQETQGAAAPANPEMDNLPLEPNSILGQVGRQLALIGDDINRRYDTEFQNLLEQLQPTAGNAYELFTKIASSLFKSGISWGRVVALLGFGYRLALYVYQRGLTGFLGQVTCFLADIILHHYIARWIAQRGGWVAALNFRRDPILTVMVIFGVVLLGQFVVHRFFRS

COc1ccc2nc3ccccc3c(NCCNCC(C)O)c2c1 (centres unmarked) [BKA-073]
Kd (mouse Bak protein): 93.4 ± 7.91 nM
tumor burden in the lung ([1]; 48 days): significant reduction
tumor multiplicity in the lung ([1]; 48 days): significant reduction
deaths out of 6 mice ([1]; up to 48 days, control 4 of 6, p < 0.01): 2
survival ([1]; vs control group): significantly prolonged survival
